pIC50: −log10 of the molar value.
Biological target: URAT1 (Homo sapiens (Human), UniProt Q96S37)
Assay: Uptake of [14C] uric acid using HEK-URAT1
Type: cell-based
Settings: for remaining activity at 10 µM: 2 min, [14C] uric acid uptake into URAT1 stably expressed HEK293 cells, 10 μM test compound, 5 μM uric acid, 2 minutes, 37° C., uptake without test compound = 100%, read-out: % control (10 μM); for pIC50: inhibition of [14C] uric acid uptake into URAT1 stably expressed HEK293 cells
Method: More specifically, the test is performed by culturing URAT1 stably expressed HEK293 cells (HEK-URAT1) or HEK293 cells transfected with empty vector (HEK-mock) in a DMEM culture medium in an incubator. Subsequently, 1×10^5 cells are respectively seeded in 24-well culture plate coated with poly D-lysine and the uptake test is started after the culturing.
The cells are washed with a solution for a test warmed to 37° C. and equilibrated. After a buffer solution is removed from the cells, 0.5 mL of an uptake solution containing 5 μM [^14C] uric acid with or without a test compound is respectively added and the cells are incubated. The cell uptake is stopped by adding a Hanks buffer solution and the cells are washed. The cells are lysed with 0.1 N sodium hydroxide and the radioactivity is measured using LSC6100 (Aloka Co., Ltd. Tokyo). Each uptake into HEK-URAT1 is acquired by subtracting uptake into HEK-mock cells from the value of HEK-URAT1, converting the result to per mg protein of cells, and setting the values from the uptake without the test compound as 100%.
URAT1 stably expressed HEK293 cells (HEK-URAT1) or HEK293 cells transfected with empty vector (HEK-mock) were cultured in DMEM culture medium supplemented with 10% fetal bovine serum in an incubator under conditions of 5% carbon dioxide at 37° C. Subsequently, 1×10^5 cells were respectively seeded in 24-well culture plate coated with poly D-lysine and the uptake test was started after the culturing for 3 days.
The uptake experiment of uric acid was performed at 37° C. […] After a buffer solution was removed from the cells, 0.5 mL of an uptake solution containing 5 μM [^14C] uric acid with or without a test compound was respectively added and the cells were incubated for 2 minutes. The cell uptake was stopped by adding an ice-cold Hanks buffer solution without chloride ions and the cells were washed 3 times. The cells were lysed with 0.1 N sodium hydroxide and the radioactivity was measured using LSC6100 (Aloka Co., Ltd. Tokyo). Each uptake into HEK-URAT1 was acquired by subtracting uptake into HEK-mock cells from the value of HEK-URAT1, converting the result to per mg protein of cells, and setting the value from uptake without the test compound as 100%. The uptake in each condition was performed in triplicate and each value was represented by average±standard deviation.
The URAT1 inhibitory action was measured according to the same method as in Example 118.

Chain of URAT1 (Q96S37 whole entry): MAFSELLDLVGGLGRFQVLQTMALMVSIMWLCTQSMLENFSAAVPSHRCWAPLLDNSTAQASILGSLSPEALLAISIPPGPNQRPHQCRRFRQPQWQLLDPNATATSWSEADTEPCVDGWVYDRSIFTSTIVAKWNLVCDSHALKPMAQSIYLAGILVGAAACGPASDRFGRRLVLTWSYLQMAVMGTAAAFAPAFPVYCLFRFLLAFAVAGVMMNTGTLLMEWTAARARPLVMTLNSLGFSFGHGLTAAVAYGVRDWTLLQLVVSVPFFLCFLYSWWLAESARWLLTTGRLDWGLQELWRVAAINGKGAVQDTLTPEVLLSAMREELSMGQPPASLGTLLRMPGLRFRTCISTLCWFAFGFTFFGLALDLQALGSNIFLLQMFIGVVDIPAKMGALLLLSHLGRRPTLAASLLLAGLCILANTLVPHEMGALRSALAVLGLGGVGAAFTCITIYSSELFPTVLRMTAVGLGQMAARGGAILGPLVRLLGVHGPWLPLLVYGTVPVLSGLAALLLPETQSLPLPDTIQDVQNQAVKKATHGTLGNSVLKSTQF

SMILES	remaining activity at 10 µM	pIC50
N#Cc1ccc(-c2c(O/C=C/C(=O)O)ccc3ncsc23)cc1 [Example 21, (E)-3-[[7-(4-cyanophenyl)benzo[d]thiazol-6-yl]oxy]acrylic acid]	48.7%	
CC(C)(Sc1ccc2ncsc2c1-c1ccc(C#N)cc1)C(=O)O [Example 24, 2-[[7-(4-Cyanophenyl)benzo[d]thiazol-6-yl]thio]-2-methylpropanoic acid]	7.4%	6.77
CC(C)(Sc1ccc2cnsc2c1-c1ccc(C#N)cc1)C(=O)O [Example 28, 2-[[7-(4-Cyanophenyl)benzo[d]isothiazol-6-yl]thio]-2-methylpropanoic acid]	0.1%	
CC(C)(Sc1ccc2nc(C(F)(F)F)sc2c1-c1ccc(C#N)cc1)C(=O)O [Example 60, 2-[[7-(4-Cyanophenyl)-2-(trifluoromethyl)benzo[d]thiazol-6-yl]thio]-2-methylpropanoic acid]	69.2%	
Cc1nc2ccc(SC(C)(C)C(=O)O)c(-c3ccc(C#N)cc3)c2s1 [Example 62, 2-[[7-(4-Cyanophenyl)-2-methylbenzo[d]thiazol-6-yl]thio]-2-methylpropanoic acid]	49%	
CC(C)(Sc1ccc2ncsc2c1-c1ccc(OC(F)(F)F)cc1)C(=O)O [Example 64, 2-Methyl-2-[[7-[4-(trifluoromethoxy)phenyl]benzo[d]thiazol-6-yl]thio]propanoic acid]	30.1%	
N#Cc1ccc(-c2c(SC3(C(=O)O)CCC3)ccc3cnsc23)cc1 [Example 66, 1-[[7-(4-Cyanophenyl)benzo[d]isothiazol-6-yl]thio]cyclobutan-1-carboxylic acid]	1.8%	7.67
N#Cc1ccc(-c2c(SC3(C(=O)O)CCCC3)ccc3cnsc23)cc1 [Example 68, 1-[[7-(4-Cyanophenyl)benzo[d]isothiazol-6-yl]thio]cyclopentan-1-carboxylic acid]	< 0.1%	7.58
CC(C)C(Sc1ccc2cnsc2c1-c1ccc(C#N)cc1)C(=O)O (stereo not drawn) [Example 70, 2-[[7-(4-Cyanophenyl)benzo[d]isothiazol-6-yl]thio]-3-methylbutanoic acid]	6.4%	
CC(C)(Sc1ccc2cnsc2c1-c1ccc([N+](=O)[O-])cc1)C(=O)O [Example 72, 2-Methyl-2-[[7-(4-nitrophenyl)benzo[d]isothiazol-6-yl]thio]propanoic acid]	< 0.1%	7.92
Cc1ccc(-c2c(SC(C)(C)C(=O)O)ccc3cnsc23)cc1 [Example 74, 2-Methyl-2-[[7-(p-tolyl)benzo[d]isothiazol-6-yl]thio]propanoic acid]	6.8%	
CC(C)c1ccc(-c2c(SC(C)(C)C(=O)O)ccc3cnsc23)cc1 [Example 76, 2-[[7-(4-Isopropylphenyl)benzo[d]isothiazol-6-yl]thio]-2-methylpropanoic acid]	12.7%	
CC(C)(Sc1ccc2cnsc2c1-c1ccc(C(F)(F)F)cc1)C(=O)O [Example 78, 2-Methyl-2-[[7-[4-(trifluoromethyl)phenyl]benzo[d]isothiazol-6-yl]thio]propanoic acid]	3.2%	6.98
CC(C)(Sc1ccc2cnsc2c1-c1ccc(OC(F)(F)F)cc1)C(=O)O [Example 80, 2-Methyl-2-[[7-[4-(trifluoromethoxy)phenyl]benzo[d]isothiazol-6-yl]thio]propanoic acid]	29.2%	
Cc1cc(C#N)ccc1-c1c(SC(C)(C)C(=O)O)ccc2cnsc12 [Example 86, 2-[[7-(4-Cyano-2-methylphenyl)benzo[d]isothiazol-6-yl]thio]-2-methylpropanoic acid]	12.1%	
Cc1cc(-c2c(SC(C)(C)C(=O)O)ccc3cnsc23)ccc1C#N [Example 88, 2-[[7-(4-Cyano-3-methylphenyl)benzo[d]isothiazol-6-yl]thio]-2-methylpropanoic acid]	3.8%	
CC(C)(Sc1ccc2cnsc2c1-c1ccc(C#N)c(F)c1)C(=O)O [Example 90, 2-[[7-(4-Cyano-3-fluorophenyl)benzo[d]isothiazol-6-yl]thio]-2-methylpropanoic acid]	3.6%	6.79
Cc1nsc2c(-c3ccc(C#N)cc3)c(SC3(C(=O)O)CCC3)ccc12 [Example 112, 1-[[7-(4-Cyanophenyl)-3-methylbenzo[d]isothiazol-6-yl]thio]cyclobutan-1-carb oxylic acid]	13.8%	5.61
CCC(CC)(Sc1ccc2cnsc2c1-c1ccc(C#N)cc1)C(=O)O [Example 113, 2-[[7-(4-Cyanophenyl)benzo[d]isothiazol-6-yl]thio]-2-ethylbutanoic acid]	< 0.1%	7.68
CC(C)(C)C(Sc1ccc2cnsc2c1-c1ccc(C#N)cc1)C(=O)O (stereo not drawn) [Example 114, 2-[[7-(4-Cyanophenyl)benzo[d]isothiazol-6-yl]thio]-3,3-dimethylbutanoic acid]	5.8%	6.32

Other lines, results leading:

remaining activity at 10 µM	pIC50	SMILES
45.4%	5.69	CC(C)(Oc1ccc2ccccc2c1-c1ccc(C#N)c2ccccc12)C(=O)O [Example 2, 2-[(4′-Cyano-(1,1′-binaphthalene)-2-yl]oxy]-2-methylpropanoic acid]
15.1%	6.10	CC(C)(Sc1ccc2ccccc2c1-c1ccc(C#N)c2ccccc12)C(=O)O [Example 4, 2-[(4′-Cyano[1,1′-binaphthalene]-2-yl)thio]-2-methylpropanoic acid]
5.4%		N#Cc1ccc(-c2c(O/C=C/C(=O)O)ccc3ccccc23)cc1 [Example 6, (E)-3-[[1-(4-Cyanophenyl)naphthalen-2-yl]oxy]acrylic acid]
29.5%		N#Cc1ccc(-c2c(O/C=C\C(=O)O)ccc3ccccc23)cc1 [Example 7, (Z)-3-[[1-(4-Cyanophenyl)naphthalen-2-yl]oxy]acrylic acid]
61.3%		CC(C)(Oc1ccc2ccccc2c1-c1cccnc1)C(=O)O [Example 8, 2-Methyl-2-[[1-(pyridin-3-yl)naphthalen-2-yl]oxy]propanoic acid]
27.1%		O=C(O)/C=C/Oc1ccc2ccccc2c1-c1cccnc1 [Example 10, (E)-3-[[1-(Pyridin-3-yl)naphthalen-2-yl]oxy]acrylic acid]
50.1%	5.46	CC(C)(Sc1ccc2ncccc2c1-c1ccc(C#N)cc1)C(=O)O [Example 15, 2-[[5-(4-Cyanophenyl)quinolin-6-yl]thio]-2-methylpropanoic acid]
59.3%		CC(C)(Oc1ccc2ncoc2c1-c1ccc(C#N)cc1)C(=O)O [Example 17, 2-[[7-(4-Cyanophenyl)benzo[d]oxazol-6-yl]oxy]-2-methylpropanoic acid]
15.6%		CC(C)(Oc1ccc2ncsc2c1-c1ccc(C#N)cc1)C(=O)O [Example 19, 2-[[7-(4-Cyanophenyl)benzo[d]thiazol-6-yl]oxy]-2-methylpropanoic acid]
11.6%		CC(C)(Oc1ccc2cnsc2c1-c1ccc(C#N)cc1)C(=O)O [Example 26, 2-[[7-(4-Cyanophenyl)benzo[d]isothiazol-6-yl]oxy]-2-methylpropanoic acid]
78.6%		CC(C)(Oc1c(-c2ccc(C#N)cc2)ccc2ncsc12)C(=O)O [Example 37, 2-[[6-(4-Cyanophenyl)benzo[d]thiazol-7-yl]oxy]-2-methylpropanoic acid]
36.5%	5.80	CC(C)(Sc1c(-c2ccc(C#N)cc2)cnc2ccccc12)C(=O)O [Example 45, 2-[[3-(4-Cyanophenyl)quinolin-4-yl]thio]-2-methylpropanoic acid]
< 0.1%	6.97	CC(C)(Sc1ccc2cnsc2c1-c1ccc(Cl)cc1)C(=O)O [Example 82, 2-[[7-(4-Chlorophenyl)benzo[d]isothiazol-6-yl]thio]-2-methylpropanoic acid]
2.3%	6.69	CC(C)(Sc1ccc2cnsc2c1-c1cccc(C#N)c1)C(=O)O [Example 84, 2-[[7-(3-Cyanophenyl)benzo[d]isothiazol-6-yl]thio]-2-methylpropanoic acid]
1.3%	7.60	C/C(=C\C(=O)O)Sc1ccc2ccccc2c1-c1ccc(C#N)cc1 [Example 116, (E)-3-[[1-(4-cyanophenyl)naphthalen-2-yl]thio]-2-butenoic acid]

From patent US10173990B2, “URAT1 inhibitor” (Nippon Chemiphar Co., Ltd., priority 2014, dated 2019)
